Results reported in PubChem BioAssay (NCI).
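Step 1: Grow cells in 96-well plates. Step 2: Expose to compound for 48 hours at 5 concentrations. Step 3: Interpolate endpoints linearly; if unreached, use highest concentration. GI50 marks 50% less growth. The concentration for full growth arrest is given as TGI.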

What was measured:
Assay in all cases: NCI-60 cell line screen, 48 h
[1] = tested on: OVCAR-4 ovarian
[2] = tested on: NCI-H522 lung
[3] = tested on: HL-60(TB) leukemia
[4] = tested on: UACC-62 melanoma
[5] = tested on: HCT-15 colon
[6] = tested on: ACHN renal
[7] = tested on: RXF 393 renal
[8] = tested on: SK-MEL-5 melanoma
[9] = tested on: M14 melanoma
[10] = tested on: NCI-H23 lung
[11] = tested on: K-562 leukemia
[12] = tested on: HCT-116 colon
[13] = tested on: SNB-75 CNS
[14] = tested on: NCI/ADR-RES ovarian
[15] = tested on: OVCAR-8 ovarian
[16] = tested on: SK-MEL-28 melanoma
[17] = tested on: CCRF-CEM leukemia
[18] = tested on: UACC-257 melanoma
[19] = tested on: 786-0 renal
[20] = tested on: U251 CNS
[21] = tested on: HT29 colon
[22] = tested on: MDA-MB-231 breast
[23] = tested on: SW-620 colon
[24] = tested on: IGROV1 ovarian
[25] = tested on: OVCAR-5 ovarian
[26] = tested on: LOX IMVI melanoma
[27] = tested on: SF-539 CNS
[28] = tested on: OVCAR-3 ovarian
[29] = tested on: SF-295 CNS
[30] = tested on: SK-OV-3 ovarian

Question: For `COc1ccc(-c2cc(-c3cc(C(C)C)c(O)cc3C)nn2-c2ccc(S(N)(=O)=O)cc2)cc1`, which TGI [1] is on record?
Answer: Its TGI is 31 µM.

Question: What about the GI50 [2] of the same compound?
Answer: Its GI50 is 3.15 µM.

Question: What about the TGI [2] of the same compound?
Answer: Its TGI is 13.7 µM.

Question: And the GI50 [3]?
Answer: The GI50 was 3.53 µM.

Question: And the TGI [3]?
Answer: The TGI was 19.8 µM.

Question: What about the GI50 [4] of the same compound?
Answer: The GI50 was 10.2 µM.

Question: What about the TGI [4] of the same compound?
Answer: The TGI was 22.1 µM.

Question: What about the GI50 [5] of the same compound?
Answer: The GI50 was 3.69 µM.

Question: What about the TGI [5] of the same compound?
Answer: Its TGI is 14.5 µM.

Question: And the GI50 [6]?
Answer: The GI50 was 11.7 µM.

Question: And the TGI [6]?
Answer: The TGI was 23.9 µM.

Question: What about the GI50 [7] of the same compound?
Answer: Its GI50 is 5.76 µM.

Question: What about the TGI [7] of the same compound?
Answer: The TGI was 20.7 µM.

Question: What about the GI50 [8] of the same compound?
Answer: Its GI50 is 11.1 µM.

Question: And the TGI [8]?
Answer: Its TGI is 23.3 µM.

Question: What about the GI50 [9] of the same compound?
Answer: The GI50 was 11.3 µM.

Question: What about the TGI [9] of the same compound?
Answer: Its TGI is 25.1 µM.

Question: And the GI50 [10]?
Answer: Its GI50 is 10.5 µM.

Question: What about the TGI [10] of the same compound?
Answer: Its TGI is 23 µM.

Question: And the GI50 [11]?
Answer: Its GI50 is 2.82 µM.

Question: And the TGI [11]?
Answer: The TGI was 18 µM.

Question: What about the GI50 [12] of the same compound?
Answer: The GI50 was 6.17 µM.

Question: What about the TGI [12] of the same compound?
Answer: Its TGI is 21.3 µM.

Question: And the GI50 [13]?
Answer: Its GI50 is 6.08 µM.

Question: What about the TGI [13] of the same compound?
Answer: The TGI was 18.6 µM.

Question: What about the GI50 [14] of the same compound?
Answer: The GI50 was 3.06 µM.

Question: And the TGI [14]?
Answer: The TGI was 11.4 µM.

Question: What about the GI50 [15] of the same compound?
Answer: The GI50 was 8.17 µM.

Question: And the TGI [15]?
Answer: The TGI was 23.2 µM.

Question: And the GI50 [16]?
Answer: The GI50 was 13 µM.

Question: What about the TGI [16] of the same compound?
Answer: Its TGI is 25.7 µM.

Question: What about the GI50 [17] of the same compound?
Answer: Its GI50 is 3.43 µM.

Question: And the TGI [17]?
Answer: The TGI was 26.3 µM.

Question: And the GI50 [18]?
Answer: The GI50 was 12.7 µM.

Question: And the TGI [18]?
Answer: The TGI was 25.7 µM.

Question: And the GI50 [19]?
Answer: The GI50 was 12.2 µM.

Question: What about the TGI [19] of the same compound?
Answer: Its TGI is 25 µM.

Question: And the GI50 [20]?
Answer: The GI50 was 4.49 µM.

Question: What about the TGI [20] of the same compound?
Answer: Its TGI is 16.5 µM.

Question: What about the GI50 [21] of the same compound?
Answer: Its GI50 is 16.2 µM.

Question: And the TGI [21]?
Answer: Its TGI is 30.2 µM.

Question: And the GI50 [22]?
Answer: The GI50 was 7.99 µM.

Question: What about the TGI [22] of the same compound?
Answer: Its TGI is 21 µM.

Question: What about the GI50 [23] of the same compound?
Answer: The GI50 was 6.44 µM.

Question: And the TGI [23]?
Answer: Its TGI is 20.4 µM.

Question: What about the GI50 [24] of the same compound?
Answer: Its GI50 is 13.4 µM.

Question: What about the TGI [24] of the same compound?
Answer: Its TGI is 26.5 µM.

Question: What about the GI50 [25] of the same compound?
Answer: Its GI50 is 16.3 µM.

Question: What about the TGI [25] of the same compound?
Answer: The TGI was 29.8 µM.

Question: What about the GI50 [26] of the same compound?
Answer: The GI50 was 5.47 µM.

Question: And the TGI [26]?
Answer: Its TGI is 18.1 µM.

Question: What about the GI50 [27] of the same compound?
Answer: Its GI50 is 3.63 µM.

Question: And the TGI [27]?
Answer: Its TGI is 13.3 µM.

Question: What about the GI50 [28] of the same compound?
Answer: Its GI50 is 5.16 µM.

Question: And the TGI [28]?
Answer: Its TGI is 17 µM.

Question: And the GI50 [29]?
Answer: Its GI50 is 10.9 µM.

Question: What about the TGI [29] of the same compound?
Answer: Its TGI is 22.8 µM.

Question: What about the GI50 [30] of the same compound?
Answer: Its GI50 is 13.8 µM.

Question: What about the TGI [30] of the same compound?
Answer: The TGI was 27.3 µM.
